Measurements reported in article PMC8113459, “Selective inhibition of cullin 3 neddylation through covalent targeting DCN1 protects mice from acetaminophen-induced liver toxicity” (Nature Communications, 2021).
“And” between values parts separate entries of the source, which are not always exact repeats. Identical values can stand only once.

How the values were obtained:
Assay type in all cases: cell-based, human
neddylation of cullin 3 = assay: Western blot, cullin 3 neddylation in U2OS cells; details: U2OS, Fig. 6c
Description: (§1) Western blotting was performed as described previously. Treated cells were lysed by RIPA buffer supplemented with protease inhibitor. The expression level of indicated proteins was examined by immunoblotting analysis and GAPDH was used as the loading control. Antibodies were purchased commercially: cullin 1 (sc-17775, 1:500 dilution) and cullin 2 (sc-166506, 1:500 dilution) from Santa Cruz Biotech (Santa Cruz, CA); cullin 4A (PA5-14542, 1:1000 dilution), cullin 4B (PA5-50647, 1:1000 dilution), and DCN3 (DCUN1D3, PA5-44000, 1:1000 dilution) from Thermo Fisher Scientific (Wayne, MI); cullin 3 (2759, 1:1000), NRF2 (12721, 1:1000 dilution), HO-1 (70081, 1:1000 dilution), and Bim (2819, 1:1000 dilution) from Cell Signaling Technology (Boston, MA); DCN1 (GWB-E3D700, 1:1000 dilution) from GenWay Biotech (San Diego, CA); and cullin 5 (A302-173A, 1:500 dilution) from Bethyl Labs (Montgomery, TX). Results are representative of two independent experiments.

[1] = Cell viability assay (WST-8), MDA-MB-231; details: human, MDA-MB-231 cells, replicates, read-out: cell viability relative to control
Description: (§2) Cell viability assay was performed as previously described. The effect of DCN1 inhibitors on cell growth was evaluated by a WST-8 [2-(2-methoxy-4-nitrophenyl)-3-(4-nitrophenyl)-5-(2,4-disulfophenyl)-2H-tetrazolium, monosodium salt assay (Dojindo Molecular Technologies, Inc). Cells (2000–3000 cells in each well) were seeded in 96-well tissue culture plates in medium (100 μL) and treated with serial dilution of DCN1 inhibitors for 3 days. At the end of incubation, WST-8 dye (20 μL) was added to each well and incubated for 1–3 h, then the absorbance was measured in a microplate reader (Molecular Devices) at 450 nm. Cell growth inhibition was evaluated as the ratio of the absorbance of the sample to that of the control. The values were inserted into Prism software, and the curves and the EC50 values were produced by Prism software.

MDA-MB-231 cells = assay: Cell viability assay (WST-8), MDA-MB-231; details: for cell viability relative to control: replicates
Description: as §2

[2] = system: neddylation of cullin 1, 2, 4A, 4B, and 5; assay: Western blot, neddylation of other cullin members
Description: as §1

[3] = Cell viability assay (WST-8), KYSE70; details: human, KYSE70 cells, replicates, read-out: cell viability relative to control
Description: as §2

KYSE70 cells = assay: Cell viability assay (WST-8), KYSE70; details: for cell viability relative to control: replicates
Description: as §2

[4] = Cell viability assay (WST-8), U2OS; details: human, U2OS cells, replicates, read-out: cell viability relative to control
Description: as §2

U2OS cells = assay: Cell viability assay (WST-8), U2OS; details: for cell viability relative to control: replicates
Description: as §2

four cancer cell lines = assay: Cell viability assay (WST-8), four cancer cell lines; details: concentrations up to 1000 nM, 72 h
Description: as §2

[5] = Cell viability assay (WST-8), HCT116; details: human, HCT116 cells, replicates, read-out: cell viability relative to control
Description: as §2

HCT116 cells = assay: Cell viability assay (WST-8), HCT116; details: for cell viability relative to control: replicates
Description: as §2

NS(=O)(=O)OC[C@@H]1C[C@@H](n2ccc3c(N[C@H]4CCc5ccccc54)ncnc32)C[C@@H]1O [MLN4924]
time within which the neddylation of cullin 3 is effectively inhibited (neddylation of cullin 3): ≤ 30 min | viability at 72 h ([1]; conc 3, 72 h): 106% | viability at 72 h ([1]; conc 10, 72 h): 98.2% | viability at 72 h ([1]; conc 30, 72 h): 78.8% | viability at 72 h ([1]; conc 100, 72 h): 43.4% | viability at 72 h ([1]; conc 300, 72 h): 25.5% | viability at 72 h ([1]; conc 1000, 72 h): 13.7% | EC50 (MDA-MB-231 cells; Homo sapiens, MDA-MB-231, 72 h, cell line assigned from panel order, read-out: EC50, cell growth inhibition): 0.154 µM | cell viability relative to control (MDA-MB-231 cells; conc 3, 72 h): 94.1379 and 99.1954 | cell viability relative to control (MDA-MB-231 cells; conc 10, 72 h): 109.785 and 104.516 | cell viability relative to control (MDA-MB-231 cells; conc 30, 72 h): 84.086 and 84.3011 | cell viability relative to control (MDA-MB-231 cells; conc 100, 72 h): 59.6774 and 48.8172 | cell viability relative to control (MDA-MB-231 cells; conc 300, 72 h): 28.4946 and 44.3011 | cell viability relative to control (MDA-MB-231 cells; conc 1000, 72 h): 18.2796 and 26.5591 | inhibition of neddylation of cullin members ([2]; THLE2, Fig. 6b): potently inhibits neddylation of all cullins | time within which the neddylation of cullin 1 is effectively inhibited ([2]; U2OS, Fig. 6c): ≤ 30 min | viability at 72 h ([3]; conc 10, 72 h): 110% | viability at 72 h ([3]; conc 30, 72 h): 76.4% | viability at 72 h ([3]; conc 100, 72 h): 59.5% | viability at 72 h ([3]; conc 300, 72 h): 41.9% | viability at 72 h ([3]; conc 1000, 72 h): 31% | EC50 (KYSE70 cells; Homo sapiens, KYSE-70, 72 h, cell line assigned from panel order, read-out: EC50, cell growth inhibition): 0.266 µM | cell viability relative to control (KYSE70 cells; conc 3, 72 h): 119.091 and 98.7603 and 92.6446 | cell viability relative to control (KYSE70 cells; conc 10, 72 h): 116.984 and 100.041 | cell viability relative to control (KYSE70 cells; conc 30, 72 h): 82.3967 | cell viability relative to control (KYSE70 cells; conc 100, 72 h): 57.9752 | cell viability relative to control (KYSE70 cells; conc 300, 72 h): 39.3388 | cell viability relative to control (KYSE70 cells; conc 1000, 72 h): 29.2149 | viability at 72 h ([4]; conc 10, 72 h): 108% | viability at 72 h ([4]; conc 30, 72 h): 97.3% | viability at 72 h ([4]; conc 100, 72 h): 50.8% | viability at 72 h ([4]; conc 1000, 72 h): 21% | EC50 (U2OS cells; Homo sapiens, U2OS, 72 h, cell line assigned from panel order, read-out: EC50, cell growth inhibition): 0.209 µM | cell viability relative to control (U2OS cells; conc 3, 72 h): 108.902 and 87.9268 and 99.0244 | cell viability relative to control (U2OS cells; conc 10, 72 h): 107.561 and 98.1707 | cell viability relative to control (U2OS cells; conc 30, 72 h): 105.122 and 104.756 | cell viability relative to control (U2OS cells; conc 100, 72 h): 49.6951 and 43.1707 | cell viability relative to control (U2OS cells; conc 300, 72 h): 47.5122 and 35 and 24.2561 | cell viability relative to control (U2OS cells; conc 1000, 72 h): 34.8293 and 26.6585 | cytotoxicity / cell viability (four cancer cell lines): potently inhibits cell viability | viability at 72 h ([5]; conc 3, 72 h): 103% | viability at 72 h ([5]; conc 10, 72 h): 118% | viability at 72 h ([5]; conc 30, 72 h): 106% | viability at 72 h ([5]; conc 300, 72 h): 26.5% | viability at 72 h ([5]; conc 1000, 72 h): 27.6% | EC50 (HCT116 cells; Homo sapiens, HCT-116, 72 h, cell line assigned from panel order, read-out: EC50, cell growth inhibition): 0.294 µM | cell viability relative to control (HCT116 cells; conc 3, 72 h): 93.0769 and 97.803 | cell viability relative to control (HCT116 cells; conc 10, 72 h): 99.5045 and 108.03 | cell viability relative to control (HCT116 cells; conc 30, 72 h): 98.1868 and 105.151 | cell viability relative to control (HCT116 cells; conc 100, 72 h): 42.5676 and 63.1319 and 54.6212 | cell viability relative to control (HCT116 cells; conc 300, 72 h): 39.0549 and 40.989 | cell viability relative to control (HCT116 cells; conc 1000, 72 h): 32.8022 and 29.945
